Assay results: PMC9995496, “A screen for MeCP2-TBL1 interaction inhibitors using a luminescence-based assay” (Scientific Reports, 2023)
Structures can show the parent of a compound that is named as a salt.

The compounds below were run on PRKACA-PRKAR2A interaction (SmBiT-PRKACA / LgBiT-PRKAR2A), protein kinase A. Conditions: counter-screen for NanoLuc interference, 0.5 h, 20 µM, inhibitor, Inh (PKA).
Parameters: NanoLuc complementation counter-screen in cell extract, PRKACA with PRKAR2A, loss of luminescence, detects NanoLuc interference

Inh (PKA) [%] | SMILES
-1.185 | O=C(c1ccccc1)c1ccc2n1CCC2C(=O)O (stereo not shown) [UM0142262:01, Ketorolac tromethamine salt]
0.4431 | NCC1(CC(=O)O)CCCCC1 [UM0142295:01, Gabapentin HCl]
-0.9808 | NCCc1c[nH]cn1 [UM0142362:01, Histamine Phosphate]

Same assay, conditions: counter-screen for NanoLuc interference; 0.5 h, 20 µM; inhibitor

SMILES | Inh (PKA) [%]
CN1CCN(C2CCN(C(=O)Nc3cc(Oc4ccc(NC(=O)C5(C(=O)Nc6ccc(F)cc6)CC5)c(F)c4)ccn3)CC2)CC1 [UM0142258:01, Golvatinib (E7050)] | 5.292
CN1C(C(=O)Nc2ccccn2)=C(O)c2sc(Cl)cc2S1(=O)=O [UM0142259:01, Lornoxicam] | 33.4
CCc1cccc2c3c([nH]c12)C(CC)(CC(=O)O)OCC3 (stereo not shown) [UM0142260:01, Etodolac] | 0.3149
Cc1ccc(Nc2c(F)cccc2Cl)c(CC(=O)O)c1 [UM0142264:01, Lumiracoxib] | 7.46
CC(C(=O)O)c1ccc2c(c1)CC(=O)c1ccccc1S2 (stereo not shown) [UM0142265:01, Zaltoprofen] | 16.72
COc1cc(-c2ncn(/C=C\C(=O)OC(C)C)n2)cc(C(F)(F)F)c1 [UM0142266:01, KPT-185] | 22.3
CCN1CCCC1CNC(=O)c1cc(S(=O)(=O)CC)c(N)cc1OC (stereo not shown) [UM0142272:01, Amisulpride] | 0.7269
CCCN[C@H]1CCc2nc(N)sc2C1 [UM0142273:01, Pramipexole] | -0.01445
OCCOCCN1CCN(C2=Nc3ccccc3Sc3ccccc32)CC1 [UM0142275:01, Quetiapine Fumarate] | 6.997
C[C@]12CC[C@@H]3c4ccc(O)cc4CC[C@H]3[C@@H]1CC[C@@H]2OC(=O)CCC1CCCC1 [UM0142280:01, Estradiol Cypionate] | 4.433
C=CC[C@]1(O)CC[C@H]2[C@@H]3CCC4=CC(=O)CCC4=C3C=C[C@@]21C [UM0142281:01, Altrenogest] | 7.202
CCCCC(=O)O[C@H]1CC[C@H]2[C@@H]3CCc4cc(O)ccc4[C@H]3CC[C@]12C [UM0142282:01, Estradiol valerate] | 9.885
C[C@]12CCC3=C4CCC(=O)C=C4CC[C@H]3[C@@H]1CC[C@@]2(O)CC#N [UM0142287:01, Dienogest] | -0.135
C#C[C@]1(O)C=C[C@H]2[C@@H]3CCC4=CC(=O)CC[C@@H]4[C@H]3CC[C@@]21CC [UM0142288:01, Gestodene] | 7.119
COc1c(C)c(C(=O)c2ccc(N)c(C(=O)O)c2)n2ccccc12 [UM0142292:01, SSR128129E] | 31.08
CC(C)c1onc(-c2c(Cl)cccc2Cl)c1COc1ccc(/C=C/c2cccc(C(=O)O)c2)c(Cl)c1 [UM0142293:01, GW4064] | 30.87
COc1ccnc2[nH]cc(C(=O)C(=O)N3CCN(C(=O)c4ccccc4)C[C@H]3C)c12 [UM0142297:01, BMS-378806] | 0.2509
N#Cc1ccc2[nH]c(O)c(-c3ccc(CN4CCOCC4)cn3)c2c1 [UM0142298:01, AZD1080] | 15.47
CC(C)(C)c1ccc(CN2CCN(C(c3ccccc3)c3ccc(Cl)cc3)CC2)cc1 (stereo not shown) [UM0142302:01, Buclizine HCl] | 2.001
CN/C(=N\CCSCc1nc[nH]c1C)NC#N [UM0142305:01, Cimetidine] | 1.548
CN(C)CC/C=C1/c2ccccc2COc2ccc(CC(=O)O)cc21 [UM0142309:01, Olopatadine HCl] | -1.243

SMILES | Inh (PKA) [%]
CCC(CC)(NC(=O)C(C)C)C(=O)N[C@@H](CCCN=C(N)N)C(=O)NC1(C(=O)NC(c2ccc(F)cc2)c2ccc(F)cc2)CCCC1 [UM0142313:01, MM-102] | 12.23
O=C(c1ccc(Nc2nccc(-c3cc4ccccc4s3)n2)cc1)N1CCC(N2CCCC2)CC1 [UM0142314:01, IKK-16 (IKK Inhibitor VII)] | 16.61
O=C(Nc1cc(C(F)(F)F)cc(C(F)(F)F)c1)c1cc(Cl)ccc1O [UM0142315:01, IMD 0354] | 90.14
C1=N/C2=N/c3ccc(OCCN4CCCC4)c(c3)COC/C=C/COCc3cccc(c3)C(=C1)N2 [UM0142316:01, Pacritinib (SB1518)] | 30.05
Nc1nc(N)nc(-c2cc(Cl)ccc2Cl)n1 [UM0142318:01, Irsogladine] | 5.104
C[N+](C)(C)CCOC(=O)CCC(=O)OCC[N+](C)(C)C [UM0142319:01, Succinylcholine Chloride Dihydrate] | -1.734
O=C(O[C@H]1C[N+]2(CCCOc3ccccc3)CCC1CC2)C(O)(c1cccs1)c1cccs1 [UM0142325:01, Aclidinium Bromide] | 1.77
C[N+]1(C)[C@@H]2C[C@@H](OC(=O)[C@H](CO)c3ccccc3)C[C@H]1[C@@H]1O[C@@H]12 [UM0142326:01, Methscopolamine] | 1.249
Cn1c(=O)c(F)c(Nc2ccc(I)cc2F)c2c(=O)n(C[C@@H](O)CO)cnc21 [UM0142329:01, TAK-733] | 15.12
c1cncc(CN2CCC(n3ncc4c(N5CCOCC5)nc(-c5ccc6[nH]ccc6c5)nc43)CC2)c1 [UM0142335:01, WAY-600] | 7.744
CNC(=O)Nc1ccc(-c2nc(N3CC4CCC(C3)O4)c3cnn(C4CCC5(CC4)OCCO5)c3n2)cc1 [UM0142336:01, WYE-125132 (WYE-132)] | 31.62
Cc1ccc(NCCCc2ccccc2)c(N)c1 [UM0142338:01, JSH-23] | 14.43
Nc1c(CC(=O)O)cccc1C(=O)c1ccccc1 [UM0142341:01, Amfenac Sodium Monohydrate] | 3.127
Nc1c(CC(=O)O)cccc1C(=O)c1ccc(Br)cc1 [UM0142342:01, Bromfenac Sodium] | 5.05
CC(C(=O)O)c1ccc2c(c1)[nH]c1ccc(Cl)cc12 (stereo not shown) [UM0142344:01, Carprofen] | 82.74
Cc1c(O)c(=O)ccn1C [UM0142352:01, Deferiprone] | 0.006466
CN(C)CCOC(C)(c1ccccc1)c1ccccn1 (stereo not shown) [UM0142354:01, Doxylamine Succinate] | 1.104
COC(=O)Nc1nc2cc(C(=O)c3ccc(F)cc3)ccc2[nH]1 [UM0142358:01, Flubendazole] | 6.18
CCC(=O)O[C@]1(C(=O)CCl)[C@@H](C)C[C@H]2[C@@H]3C[C@H](F)C4=CC(=O)C=C[C@]4(C)[C@@]3(F)[C@@H](O)C[C@@]21C [UM0142361:01, Halobetasol Propionate] | 7.218
CCCCCN(C)CCC(O)(P(=O)(O)O)P(=O)(O)O [UM0142363:01, Ibandronate sodium] | 1.018
CC(C)CC(N)=O [UM0142364:01, Isovaleramide] | -0.438

Continued, values first:

Inh (PKA) [%] | SMILES
-0.4888 | CC(C(=O)O)c1cccc(C(=O)c2ccccc2)c1 (stereo not shown) [UM0142261:01, Ketoprofen]
28.18 | CC1(C)Cc2c(-c3ccccc3)c(-c3ccc(Cl)cc3)c(CC(=O)O)n2C1 [UM0142263:01, Licofelone]
9.545 | O=C(/C=C\n1cnc(-c2cc(C(F)(F)F)cc(C(F)(F)F)c2)n1)N1CC(F)(F)C1 [UM0142267:01, KPT-276]
12.01 | O=C1[C@@H]2[C@H]3CC[C@H](C3)[C@@H]2C(=O)N1C[C@@H]1CCCC[C@H]1CN1CCN(c2nsc3ccccc23)CC1 [UM0142271:01, Lurasidone HCl]
36.3 | CCOC(=O)c1ccc(N2NC(=O)/C(=C/c3ccc([N+](=O)[O-])o3)C2=O)cc1 [UM0142276:01, PYR-41]
10.84 | COc1cc2c(cc1-c1c(C)noc1C)ncc1[nH]c(=O)n([C@H](C)c3ccccn3)c12 [UM0142279:01, I-BET151 (GSK1210151A)]
49.6 | CC[C@H](c1ccc(O)cc1)[C@@H](CC)c1ccc(O)cc1 [UM0142283:01, Hexestrol]
6.658 | CC(=O)O[C@]1(C(C)=O)CC[C@H]2[C@@H]3C[C@H](C)C4=CC(=O)CC[C@]4(C)[C@H]3CC[C@@]21C [UM0142284:01, Medroxyprogesterone acetate]
6.585 | CC(=O)[C@H]1CC[C@H]2[C@@H]3CC=C4C[C@@H](O)CC[C@]4(C)[C@H]3CC[C@]12C [UM0142285:01, Pregnenolone]
25.03 | CS(=O)(=O)c1cccc(CNc2nc(Nc3ccc4c(c3)CCC(=O)N4)ncc2C(F)(F)F)c1 [UM0142290:01, PF-573228]
3.431 | Cc1ccc2c(c1)c1c(n2CCc2ccc(C)nc2)CCN(C)C1 [UM0142307:01, Latrepirdine]
14.68 | Cc1ccc(C(=O)N(CCCN)[C@@H](c2oc3cc(Cl)ccc3c(=O)c2Cc2ccccc2)C(C)C)cc1 [UM0142317:01, SB743921]
15.14 | COc1cc(OC)c(NC(=O)Nc2cc(C)on2)cc1Cl [UM0142328:01, PNU-120596]
9.462 | Cc1cc(Nc2ccc(NC(=O)c3ccc(Nc4ccnc5ccccc45)cc3)cc2)nc(N)n1 [UM0142330:01, SGI-1027]
3.455 | CO/N=C(\C(=O)N[C@@H]1C(=O)N2C(C(=O)O)=C(CSc3nc(=O)c(O)nn3C)CS[C@H]12)c1csc(N)n1 [UM0142345:01, Ceftriaxone Sodium Trihydrate]
5.222 | CCOC(CN1CCN(CC(C)C(=O)c2ccccc2)CC1)c1ccccc1 (stereo not shown) [UM0142356:01, Eprazinone 2HCl]
5.155 | CN(C)c1ccc(O)c2c1C[C@H]1C[C@H]3[C@H](N(C)C)C(O)=C(C(N)=O)C(=O)[C@@]3(O)C(O)=C1C2=O [UM0142369:01, Minocycline HCl]
1.127 | NC[C@@H]1O[C@H](O[C@H]2[C@@H](O)[C@H](O[C@@H]3[C@@H](O)[C@H](N)C[C@H](N)[C@H]3O[C@H]3O[C@H](CN)[C@@H](O)[C@H](O)[C@H]3N)O[C@@H]2CO)[C@H](N)[C@@H](O)[C@@H]1O [UM0142371:01, Neomycin sulfate]
-0.6216 | CCN[C@@H]1C[C@H](N)[C@@H](O[C@H]2OC(CN)=CC[C@H]2N)[C@H](O)[C@H]1O[C@H]1OC[C@](C)(O)[C@H](NC)[C@H]1O [UM0142372:01, Netilmicin Sulfate]
